Test results published in US9868737B2, “Pyridino[1,2-A]pyrimidone analogue used as MTOR/P13K inhibitor” (CISEN PHARMACEUTICAL CO., LTD., priority 2014, dated 2018).
Like-named read-outs stand apart in the source and are kept apart here.

Test system: MCF-7 cells
Assay: In vitro test of cell activity (MCF-7 cells, insulin stimulation, ELISA-One fluorescence)
Assay type: cell-based
Conditions: Homo sapiens, MCF7, MCF-7 cells; for inhibition at 0.5 µM: conc. 0.5 μM; for inhibition at 1 µM: conc. 1 μM; for inhibition at 0.25 µM: conc. 0.25 μM
Method: Example In Vitro Tests of Cell Activities Experimental Steps and Methods:
1) MCF-7 cells were inoculated at the density of 2.5×10^4 cells/well into 96-well plates (the culture medium used should be a complete culture medium containing 10% FBS).
2) On the next day, the medium in each well was drawn out. A certain concentration (preliminary screening) or a series of concentration (IC50 test) of compounds were dissolved in a culture medium without serum and added to the 96-well plates to culture cells for 2 hours.
3) Insulin was dissolved in a culture medium without serum, added to the cultured cells and incubated for 30 minutes, wherein the final concentration of insulin was […].
4) A lysis solution was prepared according to the following method during the waiting period for the reaction:
a) Enhancer solution was removed from the refrigerator to melt in advance.
b) Enhancer solution was diluted 10 times with the 5× Lysis Buffer to give a concentrated lysis solution.
c) The concentrated lysis solution was diluted 5 times with double distilled water to give the lysis solution.
5) The medium in each well was completely removed and each well was quickly rinsed with PBS once.
6) 150 μl of the freshly prepared lysis solution was added to each well and shaked at room temperature for 10 minutes.
7) After confirming that all cells were detached, the lysis solution together with the cell fragments was transferred into a 1.5 ml tube.
8) The tube was shaked on vortes mixer to make the lysis solution and cells mix completely and then the mixture was centrifugated at 4° C. under 12000 g for 10 minutes.
9) The number of strips of ELISA-one micro-well plate that is required was calculated. The needless strips were removed from the frame, put back into the storage bag and sealed. Before the strips of micro-well plate were used, 200 μl of double distilled water was used to rinse each well to remove preservative.
10) 50 μl of antibody mixture was added to each well. (The antibody mixture solution was prepared by mixing the medium antibody reagent and the enzyme labeled antibody reagent with an equal proportion. The preparation of antibody mixture didn't need vortex.)
11) 25 μl of cell lysates was added to each well of ELISA-One micro-well plate. The micro-well plate was covered with adhesive sealing film and incubated on a micro-well plate oscillation instrument at room temperature for 1 hour.
12) Each well was rinsed with 150 μl of 1× rinsing buffer 3 times. After the last rinsing, the rinsing buffer in the well was completely removed. If necessary, the 1× rinsing buffer could be allowed to stay in the micro-well plate for up to 30 minutes so that the substrate mixed solution could be prepared during such time period.
13) The substrate mixed solution should be prepared just before each use, 10 μl of the substrate mixed solution was added to each well and the micro-well plate was sealed with tin-foil and incubated on the micro-well plate oscillation instrument at room temperature for 10 minutes.
14) 10 μl of stop solution was added to each well and mixed slightly (5-10 seconds) on the micro-well plate oscillation instrument.
15) The corresponding ELISA-One filter group was assembled and used to read the fluorescence signal intensity.

IC50 (read-out: IC50 p-AKT) [nM] | Compound | inhibition at 0.5 µM (read-out: % inhibition AKT) [%] | inhibition at 0.5 µM (read-out: % inhibition p70s6k) [%] | other results
≤ 50 | COc1ncc(-c2ccc3ncc(Cl)c(=O)n3c2)cc1NS(=O)(=O)c1cccc(C)c1 [compound 140] | 94.8 | 90.5 | IC50 (read-out: IC50 p-p70S6K): 50 to 100 nM
≤ 50 | COCCOCCOc1cnc2ccc(-c3cnc(OC)c(NS(=O)(=O)c4sc(C)nc4C)c3)cn2c1=O [compound 191] |  |  | 
≤ 50 | COc1ncc(-c2ccc3ncc(OCC4CCOC4)c(=O)n3c2)cc1NS(=O)(=O)c1sc(C)nc1C (stereo not shown) [compound 200] |  |  | 
≤ 50 | CCc1ccc(S(=O)(=O)Nc2cc(-c3ccc4ncc(OCCOC)c(=O)n4c3)cnc2OC)c(F)c1 [compound 281] |  |  | 
 | COc1ncc(-c2ccc3nccc(=O)n3n2)cc1NS(=O)(=O)c1ccc(C#N)cc1 [compound 77] | 50 | 4.8 | 
50 to 100 | COc1ncc(-c2ccc3ncc(OC4CCC(OC)CC4)c(=O)n3c2)cc1NS(=O)(=O)c1sc(C)nc1C (stereo not shown) [compound 207] |  |  | 
 | COc1ncc(-c2ccc3nc(C)cc(=O)n3c2)cc1NS(=O)(=O)c1cc(F)ccc1F [compound 226] | 14.8 | 4.6 | 
 | COc1ncc(-c2ccc3nccc(=O)n3c2C)cc1NS(=O)(=O)c1cccc(F)c1 [compound 53] | 68 | 40.9 | 
 | COc1ncc(-c2ccc3nccc(=O)n3c2C)cc1NS(=O)(=O)c1ccc(F)cc1Cl [compound 56] | 80.2 | 53.3 | 
≤ 50 | COc1ncc(-c2ccc3nccc(=O)n3c2)cc1NS(=O)(=O)c1ccc(C(F)(F)F)cc1 [compound 22] |  |  | inhibition at 1 µM (read-out: % inhibition AKT): 94.5%; inhibition at 1 µM (read-out: % inhibition p70s6k): 94%; IC50 (read-out: IC50 p-p70S6K): 100 to 250 nM
 | COc1ncc(-c2ccc3nccc(=O)n3c2C)cc1NS(=O)(=O)c1ccc(F)cc1F [compound 52, 2,4-difluoro-N-(2-methoxy-5-(6-methyl-4-oxo-4H-pyrido[1,2-a]pyrimidin-7-yl)pyridin-3-yl)benzsulfamide] | 69.3 | 50.3 | 
50 to 100 | COCCOc1cnc2ccc(-c3cnc(OC)c(NS(=O)(=O)c4ccc(F)c(F)c4F)c3)cn2c1=O [compound 274] |  |  | 
100 to 250 | COc1ncc(-c2ccc3ncc(Cl)c(=O)n3c2)cc1NS(=O)(=O)c1c(C)noc1C [compound 166] |  |  | inhibition at 0.25 µM (read-out: % inhibition AKT): 66.5%; inhibition at 0.25 µM (read-out: % inhibition p70s6k): 89.2%; IC50 (read-out: IC50 p-p70S6K): 100 to 250 nM
100 to 250 | COc1ncc(-c2ccc3ncc(Cl)c(=O)n3c2)cc1NS(=O)(=O)c1sc(NC(C)=O)nc1C [compound 167] |  |  | 
 | Cc1ncc(-c2ccc3nccc(=O)n3c2)cc1NS(=O)(=O)c1ccc(F)cc1 [compound 8] |  |  | inhibition at 1 µM (read-out: % inhibition AKT): 84.6%; inhibition at 1 µM (read-out: % inhibition p70s6k): 60.5%
 | COc1ncc(-c2cn3c(=O)ccnc3cc2C)cc1NS(=O)(=O)c1cc(F)ccc1F [compound 131] | -27 | 4.5 | 
 | COc1ncc(-c2cn3c(=O)ccnc3cc2F)cc1NS(=O)(=O)c1cc(F)ccc1F [compound 116] | 52.3 | 6.7 | 
 | COc1ncc(-c2ccc3nccc(=O)n3n2)cc1NS(=O)(=O)c1ccccc1F [compound 72] | 51.1 | 10.2 | 
50 to 100 | COCCOc1cnc2ccc(-c3ccc(OC)c(NS(=O)(=O)c4ccc(F)cc4F)c3)cn2c1=O [compound 205] |  |  | 
 | COc1ncc(-c2ccc3ncc(Cl)c(=O)n3c2)cc1NS(=O)(=O)c1cnc(C)[nH]1 [compound 155] |  |  | inhibition at 0.25 µM (read-out: % inhibition AKT): 29.8%; inhibition at 0.25 µM (read-out: % inhibition p70s6k): 42.2%
50 to 100 | COc1ncc(-c2ccc3ncc(OCCO)c(=O)n3c2)cc1NS(=O)(=O)c1ccc(F)cc1F [compound 178] |  |  | 
≤ 50 | COc1ncc(-c2ccc3nccc(=O)n3c2)cc1NS(=O)(=O)c1cnc2ccccc2c1 [compound 38] | 91.5 | 79.4 | IC50 (read-out: IC50 p-p70S6K): > 250 nM
 | COc1ncc(-c2ccc3nc(C)cc(=O)n3c2)cc1NS(=O)(=O)c1ccccc1F [compound 230] | 43.5 | 8.8 | 
